# Results: patent US12527831B2, “Skin care compositions comprising synergistic blend of sacred lotus and tea plant or sacred lotus and German Chamomile and cosmetic applications thereof” (ISP INVESTMENTS LLC, priority 2019, dated 2026)
# Test system: IL-1α
# Test: Inhibition of IL-1α induced by SDS in cultured epidermal keratinocytes (ELISA)
# Format: cell-based
# Settings: Homo sapiens, Keratinocyte; anti-inflammatory benchmark, HEK; read-out: IC50 in inhibiting SDS-induced IL-1α
# Experimental: Normal human adult epidermal keratinocytes (HEK) and all cell culture supplies were obtained from Life Technologies Co. (Carlsbad, CA, USA). The cells were grown and then maintained in keratinocyte basal medium 154 ([…]) with added human keratinocyte growth supplements (HKGS) at 37° C. in an atmosphere of 5% CO2 and used between passages 2 to 4. For the experiments, HEK cells were trypsinized, seeded in 96-well plates, and grown to 80% confluence. Specific concentrations of SDS were used for induction of chemokines and cytokines in the cultured HEK cells. IL-1α was induced with 25 μg/mL SDS. The cells were exposed for 16 hours to either SDS alone, or in combination with test articles at various concentrations in triplicates. After incubation, HEK cell supernatants were collected, and levels of interleukins were quantified using Quantikine® ELISA kits from R&D Systems Inc. IL-1α was quantified with catalogue number SLA50 kit. Percent (%) inhibition of IL-1α by the test articles were calculated by comparing to controls from non-SDS-induced cells considered as 0% and from SDS-induced cells considered as 100%. LDH assay using CytoscanTM LDH Assay kit (G-Biosciences Cat. No. 786-324) was performed on all HEK culture supernatants to make sure all tested concentrations had no cytotoxicity, and Kit-supplied lysis buffer was used as positive control.
structure (smiles),measurement,value
CC(=O)Oc1ccccc1C(=O)O [Aspirin],IC50,230 µg/mL
